Test results from US9468212B2, “Antifungal compositions” (DSM IP ASSETS B.V., priority 2013, dated 2016).
Where “and” joins values, the source holds several entries; their conditions need not be identical. Identical values can stand only once.

Tests used:
[1] = test system: Penicillium italicum; assay: Treatment of oranges: wounded, inoculated with Penicillium italicum, wound treated with antifungal composition (Examples 7-9); type: in vivo; conditions: for Observed antifungal activity O (%) / Number of moulded oranges/total number of 8 oranges: oranges, 20° C.
Procedure: The expected antifungal activity (E in %) of the combined antifungal composition comprising both active ingredients was calculated according to the Colby equation (Colby, 1967): E=X+Y−[(X·Y)/100] wherein X and Y are the observed antifungal activities (in %) of the individual active ingredients X and Y, respectively.
Eight fresh, organic oranges were used per treatment. Each orange was soaked in a 180 ppm hypochlorite solution for 10 minutes, then rinsed thoroughly with fresh tap water and dried. The peel of each disinfected orange was wounded once using a cork borer according to the method described by de Lapeyre de Bellaire and Dubois (1987). Subsequently, each wound was inoculated with 10 μl of a Penicillium italicum suspension containing 5×10^5 of spores/ml. After incubation for 3 hours at 20° C., each wound and the orange peel area of 1 cm around the wound was treated with in total […] of a freshly prepared aqueous antifungal composition comprising either 500 ppm natamycin (DSM Food Specialties, Delft, The Netherlands), 300 ppm fludioxonil or both. Each antifungal composition also comprised 3.2% (w/w) beeswax, 0.8% (w/w) glycerol, 0.7% (w/w) polyoxyethylene sorbitan monostearate (Tween 60), 0.1% (w/w) polyoxyethylene sorbitan monooleate (Tween 80), 0.05% (w/w) methylhydroxyethyl-cellulose (MHEC), 0.03% (w/w) anti-foaming agent, 0.02% (w/w) xanthan gum, 0.02% (w/w) citric acid, 0.01% (w/w) lactic acid and 0.01% potassium sorbate. A composition without natamycin or fludioxonil was used as control.
The treated oranges were incubated in a closed box in the dark at 20° C. and assessed on mould growth during a 27-day incubation period.
(§1) The experiment was conducted as described in Example 7, except for the fact that each wounded and inoculated orange was treated with 150 μl of a freshly prepared aqueous antifungal composition comprising either 250 ppm natamycin (DSM Food Specialties, Delft, The Netherlands), 100 ppm fludioxonil or both. During incubation, the treated oranges were assessed on mould growth according to the two methods described in Example 5.
as §1, with “500” for “250”, “400” for “100”, “fenpiclonil” for “fludioxonil”, “a 23-day incubation period,” for “incubation,”

[2] = test system: Botrytis cinerea; assay: Treatment of sweet peppers: wounded, inoculated with Botrytis cinerea, wound treated with antifungal composition (Example 10); type: in vivo; conditions: 400 ppm natamycin, 600 ppm fenpiclonil or both, 20° C.
Procedure: Ten fresh, organic sweet peppers were used per treatment. The peel of each sweet pepper was wounded once using a cork borer according to the method described by de Lapeyre de Bellaire and Dubois (1987). Subsequently, each wound was inoculated with 10 μl of a Botrytis cinerea suspension containing 1×10^5 of spores/ml. After incubation for 3 hours at 20° C., each wound and the skin area of 0.5 cm around the wound was treated with in total 75 μl of a freshly prepared aqueous antifungal composition comprising either 400 ppm natamycin (DSM Food Specialties, Delft, The Netherlands), 600 ppm fenpiclonil or both. Each antifungal composition also comprised 3.2% (w/w) beeswax, 0.8% (w/w) glycerol, 0.7% (w/w) polyoxyethylene sorbitan monostearate (Tween 60), 0.2% (w/w) polyoxyethylene sorbitan monooleate (Tween 80), 0.05% (w/w) methylhydroxyethyl-cellulose (MHEC), 0.03% (w/w) anti-foaming agent, 0.02% (w/w) xanthan gum, 0.02% (w/w) citric acid, 0.01% (w/w) lactic acid and 0.01% potassium sorbate. A composition without natamycin or fenpiclonil was used as control.
The treated sweet peppers were incubated in a closed box in the dark at 20° C. and assessed on mould growth during incubation. The antifungal activity (in %) of the individual and combined active ingredients was determined by calculating the reduction in mould growth observed on the sweet peppers treated with the antifungal composition in comparison to the mould growth on the sweet peppers treated with the control composition according to the Colby method (Colby, 1967) as described in Example 5.

[3] = 250 ppm natamycin, 100 ppm fludioxonil or both, 26-27 days
[4] = 250 ppm natamycin, 100 ppm fludioxonil or both, 19 days
[5] = 250 ppm natamycin, 100 ppm fludioxonil or both, 20 days
[6] = 250 ppm natamycin, 100 ppm fludioxonil or both, 21 days
[7] = 250 ppm natamycin, 100 ppm fludioxonil or both, 22 days
[8] = 250 ppm natamycin, 100 ppm fludioxonil or both, 23 days
[9] = 250 ppm natamycin, 100 ppm fludioxonil or both, 25 days
[10] = 250 ppm natamycin, 100 ppm fludioxonil or both, Day 14-18
[11] = 250 ppm natamycin, 100 ppm fludioxonil or both, Day 19-22
[12] = 250 ppm natamycin, 100 ppm fludioxonil or both, Day 23-27
[13] = 500 ppm natamycin, 300 ppm fludioxonil or both, 22-27 days
[14] = 500 ppm natamycin, 300 ppm fludioxonil or both, 18 days
[15] = 500 ppm natamycin, 300 ppm fludioxonil or both, 19 days
[16] = 500 ppm natamycin, 300 ppm fludioxonil or both, 20 days
[17] = 500 ppm natamycin, 300 ppm fludioxonil or both, 21 days
[18] = 500 ppm natamycin, 300 ppm fludioxonil or both, Day 18-27

| SMILES | Observed antifungal activity O (%) [1, 3] [%] | Observed antifungal activity O (%) [1, 4] [%] | Observed antifungal activity O (%) [1, 5] [%] | Observed antifungal activity O (%) [1, 6] [%] | Observed antifungal activity O (%) [1, 7] [%] | Observed antifungal activity O (%) [1, 8] [%] | Observed antifungal activity O (%) [1, 9] [%] | Number of moulded oranges/total number of 8 oranges [1, 10] | Number of moulded oranges/total number of 8 oranges [1, 11] | Number of moulded oranges/total number of 8 oranges [1, 12] | Observed antifungal activity O (%) [1, 13] [%] | Observed antifungal activity O (%) [1, 14] [%] | Observed antifungal activity O (%) [1, 15] [%] | Observed antifungal activity O (%) [1, 16] [%] | Observed antifungal activity O (%) [1, 17] [%] | Number of moulded oranges/total number of 8 oranges [1, 18] | other results |
| --- | --- | --- | --- | --- | --- | --- | --- | --- | --- | --- | --- | --- | --- | --- | --- | --- | --- |
| C[C@@H]1C/C=C/C=C/C=C/C=C/[C@H](O[C@@H]2O[C@H](C)[C@@H](O)[C@H](N)[C@@H]2O)C[C@@H]2O[C@](O)(C[C@@H](O)C[C@H]3O[C@@H]3/C=C/C(=O)O1)C[C@H](O)[C@H]2C(=O)O [Natamycin, natamycin] | 17 | 36 | 34 | 32 | 29 | 25 | 19 | 6/8 | 7/8 | 7/8 | 14 | 32 | 29 | 20 | 16 | 6 and 6/8 | Observed antifungal activity O (%) ([1]; 500 ppm natamycin, 400 ppm fenpiclonil or both, 22-23 days): 14%; Observed antifungal activity O (%) ([1]; 500 ppm natamycin, 400 ppm fenpiclonil or both, 12 days): 55%; Observed antifungal activity O (%) ([1]; 500 ppm natamycin, 400 ppm fenpiclonil or both, 13 days): 52%; Observed antifungal activity O (%) ([1]; 500 ppm natamycin, 400 ppm fenpiclonil or both, 14 days): 48%; Observed antifungal activity O (%) ([1]; 500 ppm natamycin, 400 ppm fenpiclonil or both, 15 days): 45%; Observed antifungal activity O (%) ([1]; 500 ppm natamycin, 400 ppm fenpiclonil or both, 16 days): 43%; Observed antifungal activity O (%) ([1]; 500 ppm natamycin, 400 ppm fenpiclonil or both, 18 days): 32%; Observed antifungal activity O (%) ([1]; 500 ppm natamycin, 400 ppm fenpiclonil or both, 19 days): 29%; Observed antifungal activity O (%) ([1]; 500 ppm natamycin, 400 ppm fenpiclonil or both, 20 days): 20%; Observed antifungal activity O (%) ([1]; 500 ppm natamycin, 400 ppm fenpiclonil or both, 21 days): 16%; Number of moulded oranges/total number of 8 oranges ([1]; 500 ppm natamycin, 400 ppm fenpiclonil or both, Day 14-15): 5 and 5/8; Number of moulded oranges/total number of 8 oranges ([1]; 500 ppm natamycin, 400 ppm fenpiclonil or both, Day 16): 5/8; Number of moulded oranges/total number of 8 oranges ([1]; 500 ppm natamycin, 400 ppm fenpiclonil or both, Day 18): 6/8; Number of moulded oranges/total number of 8 oranges ([1]; 500 ppm natamycin, 400 ppm fenpiclonil or both, Day 19-23): 6/8; Observed antifungal activity O (%) ([2]; 47 days): 15%; Observed antifungal activity O (%) ([2]; 48 days): 6%; Observed antifungal activity O (%) ([2]; 49 days): 4%; Observed antifungal activity O (%) ([2]; 50 days): 3% |
| N#Cc1c[nH]cc1-c1cccc2c1OC(F)(F)O2 [Fludioxonil, fludioxonil] | 0 | 9 | 2 | 0 | 0 | 0 | 0 | 8/8 | 8/8 | 8/8 | 17 | 17 | 17 | 17 | 17 | 7 and 7/8 | moulded oranges of the 8 oranges ([1]; 250 ppm natamycin, 100 ppm fludioxonil or both, after 14 through 27 days of incubation): 8 |
